Reference: patent publication US9598667B2, “Use of metal ions for modulation of protein glycosylation profiles of recombinant proteins” (AbbVie, Inc., priority 2013, dated 2017)

Key:
[1] = test system: N-glycan glycosylation profile of Antibody 1 expressed in CHO cells; experiment: N-glycan oligosaccharide profile of Antibody 1 from shake flask culture (2-AB labelling, normal phase HPLC); conditions: for galactosylation: Example 7
From the text: (§1) To test the effect of metal ions of protein glycosylation, recombinant Chinese Hamster Ovary (CHO) cell lines (CHO DUX-B11 origin based on a DHFR (dihydrofolate reductase) expression system) expressing two different humanized monoclonal antibodies (Antibody 1, Antibody 2) or a dual variable domain immunoglobulin (DVD-Ig) were shake flask cultured in chemically defined basal medium (CDBM) and chemically defined feed medium (CDFM) supplemented with selected iron compounds. The cell lines were serially expanded through separate seed train inoculums to generate enough cells for inoculation. All supplemented cultures were performed in triplicate unless otherwise indicated.
The glycosylation profile of the recombinantly expressed proteins was then determined using standard procedures. Approximately 200 μg of Protein A purified samples from Cell Lines 1 and 2 were then treated with N-glycanase at 37° C. overnight to remove the N-glycans from the protein. The protein was precipitated and the supernatant was taken for subsequent chemical derivatization of the reducing end of the released glycans with 2-aminobenzamide (2-AB) dye. Following the derivatization step, the excess labeled was removed using clean up cartridges and the samples were analyzed using normal phase HPLC with fluorescent detection. Mobile phase A was 100% acetonitrile and mobile phase B was 50 mM ammonium formate pH 4.4. The glycan were eluted from a polyamide column (Prozyme, Hayward, Calif.) using a shallow gradient. The labeled glycans were detected using a fluorescence detector with an excitation wavelength of 330 nm and an emission wavelength of 420 nm.
Concentrations of the respective iron compounds were chosen so as to minimize any potential adverse impacts on cell growth and productivity, but still facilitate a measurable impact on the glycoform profile. […] Cell culture process performance indicators were monitored and measured throughout the respective cultures. Viable cell density, cell viability, harvest titer, and harvest N-glycan oligosaccharide data was measured and reported.
By introducing iron to the culture via the feed medium, exposure to iron would be more gradual over the length of the culture. The impact to Antibody 1 was evaluated in triplicate shake flasks as described previously.
All evaluations were performed in triplicate in shake flasks with the cell line expressing Antibody 1.
The next set of experiments explored if iron transport into the cell or the galactose availability were the limiting factors. Recombinant transferrin (rTf) was added to triplicate shake flask cultures with the cell line expressing Antibody 1 with varying concentrations of ferric citrate. An independent experiment was performed with the same cell line to also determine if galactose supplementation in addition to iron and transferrin would enhance the galactosylation with triplicate shake flasks for each condition.

[2] = test system: CHO cell line expressing Antibody 2; experiment: Shake flask fedbatch culture performance, cell line expressing Antibody 2; type: cell-based, Chinese Hamster; conditions: 0.1 or 1.0 mM in basal medium; vs unsupplemented control
From the text: as §1
Absolute concentrations were assigned with respect to reference standard calibration curves.
The unsupplemented control was performed in duplicate.

[3] = test system: N-glycan glycosylation profile of DVD-Ig (DVD 1) expressed in CHO cells; experiment: N-glycan oligosaccharide profile of DVD-Ig (DVD 1) from shake flask culture; type: cell-based, Chinese Hamster
Experimental: Sodium citrate was included to provide additional evidence that the impact to the oligosaccharide profile with the prior experiments was a result of the iron addition. All conditions were performed in triplicate.

[4] = test system: N-glycan glycosylation profile of Antibody 1; experiment: N-glycan oligosaccharide profile of Antibody 1 in bioreactors; type: cell-based, Chinese Hamster; conditions: pH 6.90, dissolved oxygen 40% air saturation, two independent experiments
Experimental: Prior experiments included iron supplementation in shake flask cultures. Experiments with the cell line expressing Antibody 1 and with a cell line expressing a different DVD-Ig (denoted DVD 2, also called ABT-122) than discussed previously were carried out to confirm the impact from iron supplements would be observed in bioreactors. Operating conditions were similar to shake flask experiments, but now included pH control at pH 6.90 and dissolved oxygen control at a setpoint of 40% air saturation. Antibody 1 bioreactors were run in triplicate with the exception of the 0.08 mM FC condition. DVD 2 bioreactors were run in duplicate.

[5] = Example 2, vs unsupplemented control

ferrous sulfate
increase in NA2F species [1, 5]: 3 fold | increase in total NA1F species [1, 5]: 3 fold

O=C[C@H](O)[C@@H](O)[C@@H](O)[C@H](O)CO [galactose]
galactosylation ([1]; supplemented with iron (ferric citrate)): increased galactosylation is observed overall | dose dependence of galactosylation ([1]; Example 8, galactose supplementation with ferric citrate): dose-dependence is observed

ferric citrate
increase of peak viable cell density [2]: 4 ×10^6 cells/mL | N-glycan glycoform profile (overall result) ([1]; Example 2, concentration dependence below 1.0 mM): very similar results to ferric nitrate | galactosylation ([3]; increased concentration (0.1, 1 mM)): increased galactosylation | increase in total NA1F and NA2F species [4]: dose-dependence effect

transferrin: Recombinant transferrin (rTf) added to shake flask cultures
galactosylation ([1]; added with varying concentrations of ferric citrate, without galactose): no impact was observed to the galactosylation

O=C([O-])CC(O)(CC(=O)[O-])C(=O)[O-].[Na+].[Na+].[Na+] [Sodium citrate, reference compound]
effect on oligosaccharide profile ([3]; 0.5 mM, vs unsupplemented control): no effect on the oligosaccharide profile
